Where two headings read alike, the source gives them in different places.
Columns and labels:
monkey NPR1 = monkey NPR1 (Macaca fascicularis, UniProt A0A7N9DBT9); assay: Cellular cGMP production assay, monkey NPR1 expressing CHO-K1 cells (CisBio HTRF); format: cell-based; conditions: for Monkey NPR1 Amax (% of ANP): maximum cGMP production as percentage of the maximum cGMP produced with ANP
Description: (§1) Cellular cGMP is a major second messenger that mediates cell activities and is synthesized by activated NPR1 triggered by binding of the natural ligand ANP. […] The assay was performed according to manufacturer's instructions with minor deviations. […] All compound stocks were diluted in PBS+0.1% BSA at 2-fold the final assay concentration. After addition of 10 μL/well of assay buffer (PBS+0.1% BSA+1 mM IBMX) and 10 μL/well of the compounds in different concentrations (12-point dose-response with 3-fold dilutions from a top concentration of 30 μM), the plate was incubated for 30 min at 37° C. to allow for cGMP production. In parallel, a standard curve using a calibrator (contained in the kit) was generated. The cells were lysed and a mix of cGMP-d2 and anti-cGMP-cryptate was added and incubated for 1 h at room temperature. The readout was performed using an Envision plate reader (PerkinElmer) with an excitation wavelength of 317 nm and an emission wavelength of 665 nm. cGMP concentration (Delta F [° %]) was calculated according to the following formulae: […]

human NPR1 = target: T1, human NPR1 (Homo sapiens, UniProt P16066); assay: Cellular cGMP production assay, human NPR1 expressing CHO-K1 cells (CisBio HTRF); format: cell-based; conditions: for AC50: cGMP production, 30 min at 37° C., 12-point dose-response from 30 μM; for Human NPR1 Amax (% of ANP): maximum cGMP production as percentage of the maximum cGMP produced with ANP
T1 construct: host or cells: CHO-K1
T1 sequence (P16066 33-1061): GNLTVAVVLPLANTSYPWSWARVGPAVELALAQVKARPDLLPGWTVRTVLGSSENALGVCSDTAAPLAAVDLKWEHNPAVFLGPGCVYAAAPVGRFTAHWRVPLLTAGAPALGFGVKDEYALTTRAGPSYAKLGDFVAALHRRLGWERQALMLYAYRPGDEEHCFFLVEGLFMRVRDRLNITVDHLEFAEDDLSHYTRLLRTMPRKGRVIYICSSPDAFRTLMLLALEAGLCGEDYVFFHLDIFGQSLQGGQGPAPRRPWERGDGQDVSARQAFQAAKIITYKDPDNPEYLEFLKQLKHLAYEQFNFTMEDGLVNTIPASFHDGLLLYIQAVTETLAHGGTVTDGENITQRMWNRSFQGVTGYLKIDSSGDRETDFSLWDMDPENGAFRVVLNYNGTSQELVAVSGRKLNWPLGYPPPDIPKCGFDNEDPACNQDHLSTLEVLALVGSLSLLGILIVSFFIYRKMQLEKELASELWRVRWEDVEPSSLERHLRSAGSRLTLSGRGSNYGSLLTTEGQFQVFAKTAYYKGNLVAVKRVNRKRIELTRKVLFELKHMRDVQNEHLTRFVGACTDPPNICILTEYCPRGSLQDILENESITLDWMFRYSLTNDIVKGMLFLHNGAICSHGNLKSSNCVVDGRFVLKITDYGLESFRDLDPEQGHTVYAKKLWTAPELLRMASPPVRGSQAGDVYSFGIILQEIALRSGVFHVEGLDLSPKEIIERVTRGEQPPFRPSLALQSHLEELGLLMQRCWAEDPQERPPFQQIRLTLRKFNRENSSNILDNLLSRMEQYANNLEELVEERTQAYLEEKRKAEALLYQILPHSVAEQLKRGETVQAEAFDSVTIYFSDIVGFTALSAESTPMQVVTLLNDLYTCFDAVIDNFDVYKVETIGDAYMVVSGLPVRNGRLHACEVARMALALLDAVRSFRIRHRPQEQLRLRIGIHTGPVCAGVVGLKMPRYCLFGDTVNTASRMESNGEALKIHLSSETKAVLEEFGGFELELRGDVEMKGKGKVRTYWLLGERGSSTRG
Description: as §1

[1] = cGMP production, monkey NPR1 CHO-K1 cells, 30 min at 37° C., 12-point dose-response from 30 μM, read-out: Monkey NPR1 AC50

Sequence of monkey NPR1 (A0A7N9DBT9 entry or part of it): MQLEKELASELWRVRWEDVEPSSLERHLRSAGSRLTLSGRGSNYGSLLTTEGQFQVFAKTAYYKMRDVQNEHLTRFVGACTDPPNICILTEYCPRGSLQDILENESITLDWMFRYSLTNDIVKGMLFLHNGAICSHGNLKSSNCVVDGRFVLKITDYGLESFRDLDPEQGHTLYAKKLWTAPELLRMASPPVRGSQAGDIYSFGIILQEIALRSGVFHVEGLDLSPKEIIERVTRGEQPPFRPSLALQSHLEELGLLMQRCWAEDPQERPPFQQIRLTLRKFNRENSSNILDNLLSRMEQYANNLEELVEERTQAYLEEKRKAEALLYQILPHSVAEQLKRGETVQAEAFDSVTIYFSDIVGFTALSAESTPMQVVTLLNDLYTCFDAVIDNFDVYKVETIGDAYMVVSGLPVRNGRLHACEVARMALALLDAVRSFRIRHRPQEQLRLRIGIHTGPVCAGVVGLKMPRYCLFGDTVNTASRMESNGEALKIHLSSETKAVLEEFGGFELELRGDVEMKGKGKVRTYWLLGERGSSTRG

Structure (SMILES): CC[C@H]([C@H]1CC[C@H](C(=O)O)CC1)N(C)c1nc2c(c(N[C@@H](CN3CCCC3)c3ccccc3)n1)C[C@H](c1ccccc1)CC2 [Compound 146, (1R,4r)-4-((R)-1-(methyl((R)-6-phenyl-4-(((R)-1-phenyl-2-(pyrrolidin-1-yl)ethyl)amino)-5,6,7,8-tetrahydroquinazolin-2-yl)amino)propyl)cyclohexane-1-carboxylic acid]
- AC50 (monkey NPR1; [1]): 702 nM
- Monkey NPR1 Amax (% of ANP) (monkey NPR1; monkey NPR1 CHO-K1 cells): 96.864 % of ANP
- AC50 (human NPR1): 1070 nM
- Human NPR1 Amax (% of ANP) (human NPR1): 104.657 % of ANP

Structure (SMILES): CC[C@H]([C@H]1CC[C@H](C(=O)O)CC1)N(C)c1nc2c(c(N[C@@H](CN3CCC[C@H](C)C3)c3cnn(C)c3)n1)CN(c1ccc(F)cc1)CC2 [Compound 110, (1R,4r)-4-((R)-1-((6-(4-fluorophenyl)-4-(((R)-1-(1-methyl-1H-pyrazol-4-yl)-2-((S)-3-methylpiperidin-1-yl)ethyl)amino)-5,6,7,8-tetrahydropyrido[4,3-d]pyrimidin-2-yl)(methyl)amino)propyl)cyclohexane-1-carboxylic acid]
- AC50 (monkey NPR1; [1]): 238 nM
- Monkey NPR1 Amax (% of ANP) (monkey NPR1; monkey NPR1 CHO-K1 cells): 103.438 % of ANP
- AC50 (human NPR1): 419 nM
- Human NPR1 Amax (% of ANP) (human NPR1): 99.979 % of ANP

Structure (SMILES): CC[C@@H](Nc1nc2c(c(N[C@@H](CN3CCCCC3)c3ccccc3)n1)C[C@@H](c1cccc(F)c1)CC2)[C@H]1CC[C@H](C(=O)O)CC1 [Compound 37, (1R,4r)-4-((R)-1-(((S)-6-(3-fluorophenyl)-4-(((R)-1-phenyl-2-(piperidin-1-yl)ethyl)amino)-5,6,7,8-tetrahydroquinazolin-2-yl)amino)propyl)cyclohexane-1-carboxylic acid]
- AC50 (monkey NPR1; [1]): 158 nM
- Monkey NPR1 Amax (% of ANP) (monkey NPR1; monkey NPR1 CHO-K1 cells): 107.224 % of ANP
- AC50 (human NPR1): 150 nM
- Human NPR1 Amax (% of ANP) (human NPR1): 105.989 % of ANP

Structure (SMILES): CC[C@H]([C@H]1CC[C@H](C(=O)O)CC1)N(C)c1nc2c(c(N[C@@H](CN3C4CCCC3CCC4)c3cnn(CC)c3)n1)C[C@H](c1cccc(F)c1)CC2 [Compound 18, (1R,4r)-4-((R)-1-(((R)-4-(((R)-2-((1S,5S)-9-azabicyclo[3.3.1]nonan-9-yl)-1-(1-ethyl-1H-pyrazol-4-yl)ethyl)amino)-6-(3-fluorophenyl)-5,6,7,8-tetrahydroquinazolin-2-yl)(methyl)amino)propyl)cyclohexane-1-carboxylic acid]
- AC50 (monkey NPR1): 71 nM
- Monkey NPR1 Amax (% of ANP) (monkey NPR1; monkey NPR1 CHO-K1 cells): 100.607 % of ANP
- AC50 (human NPR1): 107 nM
- Human NPR1 Amax (% of ANP) (human NPR1): 97.609 % of ANP

Structure (SMILES): CC[C@@H](Nc1nc2c(c(N[C@@H](CN(C)C)c3ccccc3)n1)C[C@H](c1ccccc1)CC2)[C@H]1CC[C@H](C(=O)O)CC1 [Compound 165, (1R,4r)-4-((R)-1-(((R)-4-(((R)-2-(dimethylamino)-1-phenylethyl)amino)-6-phenyl-5,6,7,8-tetrahydroquinazolin-2-yl)amino)propyl)cyclohexane-1-carboxylic acid]
- AC50 (monkey NPR1; [1]): 1080 nM
- Monkey NPR1 Amax (% of ANP) (monkey NPR1; monkey NPR1 CHO-K1 cells): 87.861 % of ANP
- AC50 (human NPR1): 1810 nM
- Human NPR1 Amax (% of ANP) (human NPR1): 90.595 % of ANP

Structure (SMILES): CC[C@H]([C@H]1CC[C@H](C(=O)O)CC1)N(C)c1nc2c(c(N[C@@H](CN3CCC[C@H](CO)C3)c3cnn(C)c3)n1)C[C@H](c1ccccc1)CC2 [Compound 93, (1R,4r)-4-((R)-1-(((R)-4-(((R)-2-((S)-3-(hydroxymethyl)piperidin-1-yl)-1-(1-methyl-1H-pyrazol-4-yl)ethyl)amino)-6-phenyl-5,6,7,8-tetrahydroquinazolin-2-yl)(methyl)amino)propyl)cyclohexane-1-carboxylic acid]
- AC50 (monkey NPR1; [1]): 261 nM
- Monkey NPR1 Amax (% of ANP) (monkey NPR1; monkey NPR1 CHO-K1 cells): 91.105 % of ANP
- AC50 (human NPR1): 318 nM
- Human NPR1 Amax (% of ANP) (human NPR1): 92.058 % of ANP

Structure (SMILES): CC[C@@H](Nc1nc2c(c(N[C@@H](CN3CCCCC3)c3cnn(CC)c3)n1)C[C@H](c1ccccc1)CC2)[C@H]1CC[C@H](C(=O)O)CC1 [Compound 45, (1R,4r)-4-((R)-1-(((R)-4-(((R)-1-(1-ethyl-1H-pyrazol-4-yl)-2-(piperidin-1-yl)ethyl)amino)-6-phenyl-5,6,7,8-tetrahydroquinazolin-2-yl)amino)propyl)cyclohexane-1-carboxylic acid]
- AC50 (monkey NPR1; [1]): 125 nM
- Monkey NPR1 Amax (% of ANP) (monkey NPR1; monkey NPR1 CHO-K1 cells): 99.911 % of ANP
- AC50 (human NPR1): 175 nM
- Human NPR1 Amax (% of ANP) (human NPR1): 98.472 % of ANP

Structure (SMILES): CC[C@H]([C@H]1CC[C@H](C(=O)O)CC1)N(C)c1nc2c(c(N[C@@H](CN3CCC[C@H](C)C3)c3cnn(C)c3)n1)CN(c1cccc(F)c1)CC2 [Compound 124, (1R,4r)-4-((R)-1-((6-(3-fluorophenyl)-4-(((R)-1-(1-methyl-1H-pyrazol-4-yl)-2-((S)-3-methylpiperidin-1-yl)ethyl)amino)-5,6,7,8-tetrahydropyrido[4,3-d]pyrimidin-2-yl)(methyl)amino)propyl)cyclohexane-1-carboxylic acid]
- AC50 (monkey NPR1; [1]): 406 nM
- Monkey NPR1 Amax (% of ANP) (monkey NPR1; monkey NPR1 CHO-K1 cells): 101.428 % of ANP
- AC50 (human NPR1): 617 nM
- Human NPR1 Amax (% of ANP) (human NPR1): 106.069 % of ANP

Structure (SMILES): CC[C@@H](Nc1nc2c(c(N[C@@H](CN3C4CCCC3CC4)c3csc(C)n3)n1)C[C@H](c1cccc(F)c1)CC2)[C@H]1CC[C@H](C(=O)O)CC1 [Compound 127, (1R,4r)-4-((1R)-1-(((6R)-4-(((1S)-2-(8-azabicyclo[3.2.1]octan-8-yl)-1-(2-methylthiazol-4-yl)ethyl)amino)-6-(3-fluorophenyl)-5,6,7,8-tetrahydroquinazolin-2-yl)amino)propyl)cyclohexane-1-carboxylic acid]
- AC50 (monkey NPR1): 355 nM
- Monkey NPR1 Amax (% of ANP) (monkey NPR1; monkey NPR1 CHO-K1 cells): 102.089 % of ANP
- AC50 (human NPR1): 623 nM
- Human NPR1 Amax (% of ANP) (human NPR1): 102.596 % of ANP

Structure (SMILES): CC[C@H]([C@H]1CC[C@H](C(=O)O)CC1)N(C)c1nc2c(c(N[C@@H](CN3CCCC(C)(F)C3)c3cnn(C)c3)n1)C[C@H](c1ccccc1)CC2 (stereo partly drawn) [Compound 144, (1R,4r)-4-((1R)-1-(((6R)-4-(((1R)-2-(3-fluoro-3-methylpiperidin-1-yl)-1-(1-methyl-1H-pyrazol-4-yl)ethyl)amino)-6-phenyl-5,6,7,8-tetrahydroquinazolin-2-yl)(methyl)amino)propyl)cyclohexane-1-carboxylic acid]
- AC50 (monkey NPR1; [1]): 873 nM
- Monkey NPR1 Amax (% of ANP) (monkey NPR1; monkey NPR1 CHO-K1 cells): 152.392 % of ANP
- AC50 (human NPR1): 985 nM
- Human NPR1 Amax (% of ANP) (human NPR1): 114.314 % of ANP

Structure (SMILES): C[C@@H](Nc1nc2c(c(N[C@@H](CN3CCCC3)c3ccccc3)n1)C[C@H](c1ccccc1)CC2)c1ccc(C(=O)O)cc1 [Compound 159, 4-((R)-1-(((R)-6-phenyl-4-(((R)-1-phenyl-2-(pyrrolidin-1-yl)ethyl)amino)-5,6,7,8-tetrahydroquinazolin-2-yl)amino)ethyl)benzoic acid]
- AC50 (monkey NPR1; [1]): 503 nM
- Monkey NPR1 Amax (% of ANP) (monkey NPR1; monkey NPR1 CHO-K1 cells): 98.468 % of ANP
- AC50 (human NPR1): 1580 nM
- Human NPR1 Amax (% of ANP) (human NPR1): 92.446 % of ANP

Structure (SMILES): CC[C@@H](N(C)c1nc2c(c(N[C@@H](CN3CCC[C@H](C)C3)c3cnn(CC)c3)n1)C[C@H](c1cccc(F)c1)CC2)C12CC(C(=O)O)(C1)C2 [Compound 13, 3-((R)-1-(((R)-4-(((R)-1-(1-ethyl-1H-pyrazol-4-yl)-2-((S)-3-methylpiperidin-1-yl)ethyl)amino)-6-(3-fluorophenyl)-5,6,7,8-tetrahydroquinazolin-2-yl)(methyl)amino)propyl)bicyclo[1.1.1]pentane-1-carboxylic acid]
- AC50 (monkey NPR1; [1]): 64 nM
- Monkey NPR1 Amax (% of ANP) (monkey NPR1; monkey NPR1 CHO-K1 cells): 100.145 % of ANP
- AC50 (human NPR1): 94 nM
- Human NPR1 Amax (% of ANP) (human NPR1): 99.405 % of ANP
